# Laboratory results from patent US9023864B2, “Indole derivatives as CRTH2 receptor antagonists” (Merck Sharp & Dohme Corp., priority 2009, dated 2015).
# Molecular target: T1, hCRTH2 (Homo sapiens, UniProt Q9Y5Y4)
# T1 construct: expressed in transfected cells; host or cells: HEK cell line expressing hCRTH2 (HEK-hCRTH2); membranes
# T1 sequence (Q9Y5Y4 1-395): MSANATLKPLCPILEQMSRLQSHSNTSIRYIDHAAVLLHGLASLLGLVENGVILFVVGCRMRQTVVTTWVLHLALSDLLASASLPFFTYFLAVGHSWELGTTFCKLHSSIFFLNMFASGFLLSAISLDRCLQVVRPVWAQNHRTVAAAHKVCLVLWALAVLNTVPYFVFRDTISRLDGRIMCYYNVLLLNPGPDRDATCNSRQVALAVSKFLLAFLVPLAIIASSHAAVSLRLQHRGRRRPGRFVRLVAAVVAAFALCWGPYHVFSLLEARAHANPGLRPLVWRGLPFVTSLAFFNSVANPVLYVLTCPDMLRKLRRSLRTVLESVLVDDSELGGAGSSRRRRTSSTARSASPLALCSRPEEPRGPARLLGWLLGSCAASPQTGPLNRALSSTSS
# Assay: Radioligand binding assay ([3H]PGD2 competition, membranes from HEK-hCRTH2 cell line)
# Settings: 0.7 nM [3H]PGD2, membrane protein from HEK-hCRTH2 cell line, 60 min at room temperature; values given as ranges
# Procedure: Radioligand Binding Assay.
# Radioligand binding assays were performed at room temperature in 10 mM HEPES/KOH pH 7.4, 1 mM EDTA containing 10 mM MnCl2 and 0.7 nM [^3H]PGD2 (NEN, 171 Ci mmol^−1), in a final volume of 0.2 ml. Competing ligands were diluted in dimethylsulfoxide (Me2SO) that was kept constant at 1% (v/v) of the final incubation volume. The reaction was initiated by the addition of 8-20 μg of membrane protein prepared from a HEK-hCRTH2 cell line. Total and non-specific binding were determined in the absence and the presence of 10 μM PGD2, respectively. Under these conditions, specific binding (total minus non-specific) of the radioligand to the receptor reached equilibrium within 50 min and was stable up to 180 min. The reaction was routinely conducted for 60 min at room temperature and terminated by rapid filtration through prewetted Unifilters GF/C (Packard), using a Tomtec MachIII semi-automated harvester (for HEK-hCRTH2). The filters were then washed with 4 ml of the same buffer and residual radioligand bound to the filter was determined by liquid scintillation counting following equilibration in 25 μl Ultima Gold F™ (Unifilter) (Packard). The Ki (in nM) values for representative compounds of the present invention are as follows: ≦5: Examples 3.1, 5.1, 6.1, 7.1, 8.1/8A, 9.1, 26, 27.1, 28.1, 29.1, 30, 31.1, 31.3, 32.1, 32.4, 33.1, 34.1, 36.1, 38.1, 39, 40, 41; >5 and ≦10: Examples, 4, 5.3, 29.2; >10 and ≦50: Examples 1, 10, 14, 21, 22, 25, 31.4, 32.3, 35, 36.2, 37; >50 and ≦100: Examples 2, 5.4, 6.2, 27.2, 28.2; >100: Examples 3.2, 5.2, 7.2, 8.2, 9.2, 11, 12, 13, 15, 16, 17, 18, 19, 20, 23, 24, 31.2, 32.2, 33.2, 34.2, 38.2.
row,SMILES,Ki
1,"O=C(O)Cc1c2n(c3c(F)cccc13)CC(n1nncc1Cc1ccc(F)c(F)c1)CC2 (single isomer, unassigned) [Example 33.2, {7-[5-(3,4-difluorobenzyl)-1H-1,2,3-triazol-1-yl]-4-fluoro-6,7,8,9-tetrahydropyrido[1,2-a]-indol-10-yl}acetic acid]",> 100 nM
2,"O=C(O)Cc1c2n(c3c(F)cccc13)CC(n1nncc1Cc1ccc(Cl)cc1)CC2 (single isomer, unassigned) [Example 34.1, {7-[5-(4-chlorobenzyl)-1H-1,2,3-triazol-1-yl]-4-fluoro-6,7,8,9-tetrahydropyrido[1,2-a]indol-10-yl}acetic acid]",≤ 5 nM
3,"O=C(O)Cc1c2n(c3c(F)cccc13)CC(n1nncc1Cc1ccc(Cl)cc1)CC2 (single isomer, unassigned) [Example 34.2, {7-[5-(4-chlorobenzyl)-1H-1,2,3-triazol-1-yl]-4-fluoro-6,7,8,9-tetrahydropyrido[1,2-a]indol-10-yl}acetic acid]",> 100 nM
4,"Cc1nnn(C2CCc3c(CC(=O)O)c4cccc(F)c4n3C2)c1Cc1ccc(F)cc1 (single isomer, unassigned) [Example 36.1, {4-Fluoro-7-[5-(4-fluorobenzyl)-4-methyl-1H-1,2,3-triazol-1-yl]-6,7,8,9-tetrahydropyrido[1,2-a]indol-10-yl}acetic acid]",≤ 5 nM
5,"Cc1nnn(C2CCc3c(CC(=O)O)c4cccc(F)c4n3C2)c1Cc1ccc(F)cc1 (single isomer, unassigned) [Example 36.2, {4-Fluoro-7-[5-(4-fluorobenzyl)-4-methyl-1H-1,2,3-triazol-1-yl]-6,7,8,9-tetrahydropyrido[1,2-a]indol-10-yl}acetic acid]",10 to 50 nM
6,"CC1C(n2nncc2Cc2ccc(F)cc2)CCc2c(CC(=O)O)c3cccc(F)c3n21 (single isomer, unassigned) [Example 38.1, {4-Fluoro-7-[5-(4-fluorobenzyl)-1H-1,2,3-triazol-1-yl]-6-methyl-6,7,8,9-tetrahydropyrido[1,2-α]indol-10-yl}acetic acid]",≤ 5 nM
7,"CC1C(n2nncc2Cc2ccc(F)cc2)CCc2c(CC(=O)O)c3cccc(F)c3n21 (single isomer, unassigned) [Example 38.2, {4-Fluoro-7-[5-(4-fluorobenzyl)-1H-1,2,3-triazol-1-yl]-6-methyl-6,7,8,9-tetrahydropyrido[1,2-α]indol-10-yl}acetic acid]",> 100 nM
8,"CC(C)(c1ccc(F)cc1)c1cnnn1C1CCc2c(CC(=O)O)c3cccc(F)c3n2C1 (single isomer, unassigned) [Example 39, (4-Fluoro-7-{5-[1-(4-fluorophenyl)-1-methylethyl]-1H-1,2,3-triazol-1-yl}-6,7,8,9-tetrahydropyrido[1,2-a]indol-10-yl)acetic acid]",≤ 5 nM
9,"O=C(O)Cc1c2n(c3ccccc13)CC(n1nncc1Cc1ccc(F)cc1F)CC2 (single isomer, unassigned) [Example 40, {7-[5-(2,4-difluorobenzyl)-1H-1,2,3-triazol-1-yl]-6,7,8,9-tetrahydropyrido[1,2-a]-indol-10-yl}acetic acid]",≤ 5 nM
10,"O=C(O)Cc1c2n(c3c(F)cccc13)CC(n1nncc1Cc1ccc(F)cc1F)CC2 (single isomer, unassigned) [Example 41, {7-[5-(2,4-difluorobenzyl)-1H-1,2,3-triazol-1-yl]-4-fluoro-6,7,8,9-tetrahydro-pyrido[1,2-a]indol-10-yl}acetic acid]",≤ 5 nM
11,"O=C(O)Cc1c2n(c3ccccc13)CC(n1cc(Cc3ccccc3)nn1)CC2 (stereo not drawn) [Example 1, [7-(4-Benzyl-[1,2,3]triazol-1-yl)-6,7,8,9-tetrahydropyrido[1,2-α]indol-10-yl]-acetic acid]",10 to 50 nM
12,"COc1ccc(-c2cn(C3CCc4c(CC(=O)O)c5ccccc5n4C3)nn2)cc1 (stereo not drawn) [Example 2, {7-[4-(4-Methoxy-phenyl)-[1,2,3]triazol-1-yl]-6,7,8,9-tetrahydropyrido[1,2-α]indol-10-yl}-acetic acid]",50 to 100 nM
